Settings: Liquid; for speed of sound: Pulse-echo method; for mass density: Vibrating tube method

CCCn1cc[n+](C)c1.O=S(=O)([N-]S(=O)(=O)C(F)(F)F)C(F)(F)F
Settings | mass density [kg/m3] | speed of sound [m/s]
318.15 K, 10000 kPa | – | 1225.2
318.15 K, 10020 kPa | 1464.41 | –
318.15 K, 13500 kPa | – | 1236.8
318.15 K, 14980 kPa | 1467.91 | –
318.15 K, 17000 kPa | – | 1248.2
318.15 K, 19750 kPa | 1471.3 | –
318.15 K, 20000 kPa | – | 1257.7
318.15 K, 25860 kPa | 1475.51 | –
318.15 K, 30000 kPa | – | 1288.7
318.15 K, 31480 kPa | 1479.58 | –
318.15 K, 37770 kPa | 1483.63 | –
318.15 K, 40000 kPa | – | 1317.8
318.15 K, 44170 kPa | 1487.95 | –
318.15 K, 50000 kPa | – | 1345.7
318.15 K, 50750 kPa | 1492.22 | –
318.15 K, 59590 kPa | 1498.46 | –
318.15 K, 60000 kPa | – | 1372.2
318.15 K, 70000 kPa | – | 1397.8
318.15 K, 80000 kPa | – | 1422.3
318.15 K, 90000 kPa | – | 1446.3
318.15 K, 100000 kPa | – | 1468.9
318.15 K, 112500 kPa | – | 1496.5
318.15 K, 125000 kPa | – | 1523.2
318.15 K, 137510 kPa | – | 1548.4
318.15 K, 150000 kPa | – | 1572.9
318.15 K, 162500 kPa | – | 1596.6
318.15 K, 175000 kPa | – | 1620
318.15 K, 187500 kPa | – | 1642.7
318.15 K, 200000 kPa | – | 1664.6
323.15 K, 100 kPa | 1451.66 | –
323.15 K, 1830 kPa | 1452.94 | –
323.15 K, 10020 kPa | 1459.11 | –
323.15 K, 14980 kPa | 1462.75 | –
323.15 K, 19750 kPa | 1466.15 | –
323.15 K, 25860 kPa | 1470.44 | –
323.15 K, 31480 kPa | 1474.24 | –
323.15 K, 37770 kPa | 1478.57 | –
323.15 K, 44170 kPa | 1482.86 | –
323.15 K, 50750 kPa | 1487.24 | –
323.15 K, 59590 kPa | 1493.03 | –
325.15 K, 100 kPa | 1449.44 | –
325.15 K, 1830 kPa | 1450.74 | –
325.15 K, 10020 kPa | 1456.98 | –
325.15 K, 14980 kPa | 1460.64 | –
325.15 K, 19750 kPa | 1464.08 | –
325.15 K, 25860 kPa | 1468.44 | –
325.15 K, 31480 kPa | 1472.46 | –
325.15 K, 37770 kPa | 1476.81 | –
325.15 K, 44170 kPa | 1481.18 | –
325.15 K, 50750 kPa | 1485.62 | –
325.15 K, 59590 kPa | 1491.56 | –
327.15 K, 100 kPa | 1447.19 | –
327.15 K, 1830 kPa | 1448.52 | –
327.15 K, 10020 kPa | 1454.88 | –
327.15 K, 14980 kPa | 1458.57 | –
327.15 K, 19750 kPa | 1461.98 | –
327.15 K, 25860 kPa | 1466.38 | –
327.15 K, 31480 kPa | 1470.37 | –
327.15 K, 37770 kPa | 1474.75 | –
327.15 K, 44170 kPa | 1479.18 | –
327.15 K, 50750 kPa | 1483.65 | –
327.15 K, 59590 kPa | 1489.6 | –
328.15 K, 500 kPa | – | 1170.9
328.15 K, 3500 kPa | – | 1181.8
328.15 K, 7000 kPa | – | 1194.2
328.15 K, 10000 kPa | – | 1204.7
328.15 K, 13500 kPa | – | 1216.4
328.15 K, 17000 kPa | – | 1228
328.15 K, 20000 kPa | – | 1237.7
328.15 K, 30000 kPa | – | 1269.2
328.15 K, 40000 kPa | – | 1299.1
328.15 K, 50000 kPa | – | 1327.3
328.15 K, 60000 kPa | – | 1354.2
328.15 K, 70000 kPa | – | 1380.1
328.15 K, 80000 kPa | – | 1405.1
328.15 K, 90000 kPa | – | 1429.1
328.15 K, 100000 kPa | – | 1452.2
328.15 K, 112500 kPa | – | 1480.1
328.15 K, 125000 kPa | – | 1506.9
328.15 K, 137510 kPa | – | 1532.8
328.15 K, 150000 kPa | – | 1557
328.15 K, 162500 kPa | – | 1581.2
328.15 K, 175000 kPa | – | 1604.6
328.15 K, 187500 kPa | – | 1627.3
328.15 K, 200000 kPa | – | 1649.6
329.15 K, 100 kPa | 1444.85 | –
329.15 K, 1830 kPa | 1446.17 | –
329.15 K, 10020 kPa | 1452.55 | –
329.15 K, 14980 kPa | 1456.27 | –
329.15 K, 19750 kPa | 1459.81 | –
329.15 K, 25860 kPa | 1464.24 | –
329.15 K, 31480 kPa | 1468.26 | –
329.15 K, 37770 kPa | 1472.67 | –
329.15 K, 44170 kPa | 1477.09 | –
329.15 K, 50750 kPa | 1481.63 | –
329.15 K, 59590 kPa | 1487.58 | –
331.15 K, 100 kPa | 1442.53 | –
331.15 K, 1830 kPa | 1443.83 | –
331.15 K, 10020 kPa | 1450.37 | –
331.15 K, 14980 kPa | 1454.12 | –
331.15 K, 19750 kPa | 1457.75 | –
331.15 K, 25860 kPa | 1462.22 | –
331.15 K, 31480 kPa | 1466.27 | –
331.15 K, 37770 kPa | 1470.7 | –
331.15 K, 44170 kPa | 1475.13 | –
331.15 K, 50750 kPa | 1479.63 | –
331.15 K, 59590 kPa | 1485.58 | –
333.15 K, 100 kPa | 1440.12 | –
333.15 K, 1830 kPa | 1441.48 | –
333.15 K, 10020 kPa | 1448.04 | –
333.15 K, 14980 kPa | 1451.88 | –
333.15 K, 19750 kPa | 1455.51 | –
333.15 K, 25860 kPa | 1460.01 | –
333.15 K, 31480 kPa | 1464.11 | –
333.15 K, 37770 kPa | 1468.58 | –
333.15 K, 44170 kPa | 1473.05 | –
333.15 K, 50750 kPa | 1477.56 | –
333.15 K, 59590 kPa | 1483.54 | –
338.15 K, 1420 kPa | – | 1153.5
338.15 K, 3500 kPa | – | 1161.2
338.15 K, 7000 kPa | – | 1173.8
338.15 K, 10000 kPa | – | 1184.4
338.15 K, 13500 kPa | – | 1196.6
338.15 K, 17000 kPa | – | 1208.3
338.15 K, 20000 kPa | – | 1218.2
338.15 K, 30000 kPa | – | 1250.4
338.15 K, 40000 kPa | – | 1280.7
338.15 K, 50000 kPa | – | 1309.2
338.15 K, 60000 kPa | – | 1336.7
338.15 K, 70000 kPa | – | 1362.9
338.15 K, 80000 kPa | – | 1388.1
338.15 K, 90000 kPa | – | 1412.3
338.15 K, 100000 kPa | – | 1435.8
338.15 K, 112500 kPa | – | 1463.9
338.15 K, 125000 kPa | – | 1491.1
338.15 K, 137510 kPa | – | 1517
338.15 K, 150000 kPa | – | 1541.4
338.15 K, 162500 kPa | – | 1566
338.15 K, 175000 kPa | – | 1589.5
